Results as given in patent US11512085B2, “Heteroaryl compound having drug activity” (SHANGHAI DUDE MEDICAL TECHNOLOGY CO., LTD, priority 2017, dated 2022).
Read-outs that look alike come from different tables or passages of the source.

What was measured:
Lck = Lck (Homo sapiens, UniProt P06239); assay: Btk selectivity over Lck (same kinase method, Btk replaced); type: biochemical; settings: ratio of IC50 values
Method: Other kinases (e.g., inhibitory activity of Lck and LynA is determined by replacing the Btk with various kinases and performing operations the same as that in the above method).

Jeko-1 = assay: In vitro tumor cell proliferation (CellTiter-Glo), Jeko-1; type: cell-based; settings: Homo sapiens, JeKo-1, 72 h; read-out: Growth IC50
Method: (§1) Biological Embodiment 8: Study on Effects of Active Compounds for Inhibiting In Vitro Tumor Cell Proliferation
(§2) Promega CellTiter-Glo cell activity detection kit by luminescence (Promega-G7573).
(§3) Tumor cell lines were cultured in a 5% of CO2 incubator at 37° C. according to respective culture conditions; and periodic passage was performed, and cells positioned in a logarithmic phase were taken for planking.
(§4) 3) 90 μL of cell suspension was added into each well of the culture plate, and a culture solution containing no cell was added into blank control;
(§5) 4) the culture plate was cultured overnight in the 5% of CO2 incubator having relative humidity of 100% at 37° C.
(§6) Preparation of a 400× compound storage plate: the compound was diluted from the maximum concentration gradient to the lowest concentration with DMSO. […]
(§7) The following steps were performed according to the specification of the Promega CellTiter-Glo cell activity detection kit by luminescence (Promega-G7573). […]
(§8) 9) the luminescence signal was detected on the 2104 EnVision plate reader.

Raji = assay: In vitro tumor cell proliferation (CellTiter-Glo), Raji; type: cell-based; settings: Homo sapiens, 72 h, read-out: Growth IC50
Method: as §1, §2, §3, §4, §5, §6, §7, §8

B cells = assay: B cell activation (anti-human IgM, CD69 staining); type: cell-based; settings: concentration of 0.1 uM
Method: Biological Embodiment 3: Influences of In-Vitro Test Compounds on PBMC/B/T Cell Activation
4.3 Isolation of B Cells and T Cells
Cell Isolation Programs Shall Refer to […] Kits
4.4.1 Activation of B Cells
The co-culture system is as follows:
Antibody Staining and Data Analysis
Antibody staining was performed within 24 hours […] according to a standard method.
4.5.1 Activation of PBMC and B Cells
LIVE/DEAD Fixable Violet Dead Cell Stain Kit

WSU-NHL = assay: In vitro tumor cell proliferation (CellTiter-Glo), WSU-NHL; type: cell-based; settings: Homo sapiens, 72 h, read-out: Growth IC50
Method: as §1, §2, §3, §4, §5, §6, §7, §8

[1] = Pharmacokinetic study, single intravenous and oral dose, beagle dogs; type: in vivo; settings: male, blood; for AUC(0-t) / Cmax / Tmax / half-life: Dog; for half-life: read-out: T½ (converted)
Method: Biological Embodiment 7: Pharmacokinetic Study of Performing Respective Single Intravenous and Oral Dose Delivery with Test Samples on SD Rats and Beagle Dogs
6 male beagle dogs were selected, grouped and administered according to an experimental design table; 3 animals in the first group were intravenously administered once on the day of administration, wherein the administration dosage was 2 mg/kg, and the administration volume was 2.5 mL/kg; 3 animals in the second group were orally intragastrically administered once on the day of administration, wherein the administration dosage was 30 mg/kg, and the administration volume was 5 mL/kg.
All the animals were subjected to cage edge observation twice every day so as to determine whether the animals got ill or had injuries or death and other situations and whether supply of foods and water was sufficient. In the test process, all administered animals were subjected to detailed clinical observation before administration and at blood collection points.
Before administration (0 h) and within 0.083 h, 0.25 h, 0.5 h, 1 h, 2 h, 4 h, 6 h, 8 h and 24 h after administration, blood samples were collected from femoral veins at 10 time points so as to be used for blood concentration test. Experimental design table

OCI-LY3 = assay: In vitro tumor cell proliferation (CellTiter-Glo), OCI-LY3; type: cell-based; settings: Homo sapiens, OCI-Ly3, 72 h; read-out: Growth IC50
Method: as §1, §2, §3, §4, §5, §6, §7, §8

Sequence of Lck (P06239 whole entry): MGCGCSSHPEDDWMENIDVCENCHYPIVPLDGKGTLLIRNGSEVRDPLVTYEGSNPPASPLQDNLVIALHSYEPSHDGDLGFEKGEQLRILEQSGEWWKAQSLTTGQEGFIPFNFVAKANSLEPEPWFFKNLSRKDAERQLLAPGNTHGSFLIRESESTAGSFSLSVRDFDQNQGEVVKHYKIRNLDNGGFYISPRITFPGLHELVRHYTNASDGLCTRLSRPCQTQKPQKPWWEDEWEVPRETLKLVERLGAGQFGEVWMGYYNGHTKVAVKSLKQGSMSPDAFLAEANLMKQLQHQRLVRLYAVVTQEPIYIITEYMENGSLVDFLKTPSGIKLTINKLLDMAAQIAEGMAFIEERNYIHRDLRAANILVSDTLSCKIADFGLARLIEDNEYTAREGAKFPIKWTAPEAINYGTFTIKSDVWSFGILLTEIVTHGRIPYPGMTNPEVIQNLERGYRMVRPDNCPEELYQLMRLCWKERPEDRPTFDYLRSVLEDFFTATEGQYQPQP

In the case of `C=CC(=O)NN1CCCC(n2nc(-c3ccc(Oc4ccccc4)cc3)c3c(N)ncnc32)C1` (stereo not drawn) [Embodiment 6, N-(3-(4-amino-3-(4-phenoxyphenyl)-1H-pyrazolo[3,4-D]pyrimidine-1-yl)-1-piperidyl)-acrylamide], the “Lck[IC50]/Btk[IC50]” value (Lck) is reported as 285, the IC50 (Jeko-1) is reported as > 10 µM and the IC50 (Raji) is reported as > 10 µM. The “B cell activity inhibition effect” value (B cells) was “obvious B cell activity inhibition effects”, the IC50 (WSU-NHL) was 1.02 µM and the AUC(0-t) ([1]; IV, 2 mg/kg) was 0.888 µg·h/mL. The Cmax ([1]; IV, 2 mg/kg) was 1.23 µg/mL, the Tmax ([1]; IV, 2 mg/kg) was 4.98 min and the half-life ([1]; IV, 2 mg/kg) was 48 min. The AUC(0-t) ([1]; PO, 30 mg/kg) was 7.42 µg·h/mL, the Cmax ([1]; PO, 30 mg/kg) was 3.83 µg/mL and the Tmax ([1]; PO, 30 mg/kg) was 49.8 min. The half-life ([1]; PO, 30 mg/kg) was 45 min, the bioavailability ([1]; dog, oral, 30 mg/kg) was 54.6% and the IC50 (OCI-LY3) was > 10 µM.
